The source made the active and inactive calls. The rule behind the calls is not given here.
Legend:
[1] = test system: MCF7; assay: Antiproliferative activity against human MCF7 cells assessed as reduction in cell viability measured after 7 days by celltiter-glo luminescence assay; assay type: functional, cell-based; settings: for IC50: MCF7, 168 h; for Activity: time 7.0 day
[2] = test system: MCF7; assay: Protac activity at VHL/ER in human MCF7 cells assessed as induction of ER degradation at 1 uM measured after 24 hrs by Western blot analysis; assay type: cell-based
[3] = Half life in CD-1 mouse at 2 mg/kg, ip by LC-MS/MS analysis; assay type: ADME, organism-based; settings: in vivo
[4] = Observed apparent […] clearance in CD-1 mouse at 2 mg/kg, ip by LC-MS/MS analysis; assay type: ADME, organism-based; settings: in vivo
[5] = Tmax in CD-1 mouse at 2 mg/kg, ip by LC-MS/MS analysis; assay type: ADME, organism-based; settings: in vivo
[6] = Cmax in CD-1 mouse at 2 mg/kg, ip by LC-MS/MS analysis; assay type: ADME, organism-based; settings: in vivo
[7] = target: T1, Protein cereblon/Estrogen receptor (Homo sapiens, UniProt P03372+Q96SW2); assay: Protac activity at CRBN/ER in human MCF7 cells assessed as induction of ER degradation at 1 uM measured after 24 hrs by Western blot analysis; assay type: cell-based
Target sequence in this assay (P03372 whole entry, looked up): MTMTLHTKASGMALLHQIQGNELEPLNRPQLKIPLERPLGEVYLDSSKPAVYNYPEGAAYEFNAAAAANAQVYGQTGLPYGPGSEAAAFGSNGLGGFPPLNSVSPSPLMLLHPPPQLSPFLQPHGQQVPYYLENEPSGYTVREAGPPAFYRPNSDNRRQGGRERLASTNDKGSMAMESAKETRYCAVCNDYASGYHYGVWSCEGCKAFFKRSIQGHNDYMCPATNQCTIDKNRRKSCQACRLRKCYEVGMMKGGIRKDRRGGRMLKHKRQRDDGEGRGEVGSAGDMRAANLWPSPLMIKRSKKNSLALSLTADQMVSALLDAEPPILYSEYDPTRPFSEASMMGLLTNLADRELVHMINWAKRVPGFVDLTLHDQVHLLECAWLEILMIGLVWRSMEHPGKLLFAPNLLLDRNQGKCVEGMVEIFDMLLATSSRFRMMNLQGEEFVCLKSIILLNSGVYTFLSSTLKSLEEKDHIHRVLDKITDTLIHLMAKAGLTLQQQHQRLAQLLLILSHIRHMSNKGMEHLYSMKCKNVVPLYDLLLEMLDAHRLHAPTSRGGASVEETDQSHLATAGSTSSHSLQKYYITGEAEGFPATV
Target sequence in this assay (Q96SW2 whole entry, looked up): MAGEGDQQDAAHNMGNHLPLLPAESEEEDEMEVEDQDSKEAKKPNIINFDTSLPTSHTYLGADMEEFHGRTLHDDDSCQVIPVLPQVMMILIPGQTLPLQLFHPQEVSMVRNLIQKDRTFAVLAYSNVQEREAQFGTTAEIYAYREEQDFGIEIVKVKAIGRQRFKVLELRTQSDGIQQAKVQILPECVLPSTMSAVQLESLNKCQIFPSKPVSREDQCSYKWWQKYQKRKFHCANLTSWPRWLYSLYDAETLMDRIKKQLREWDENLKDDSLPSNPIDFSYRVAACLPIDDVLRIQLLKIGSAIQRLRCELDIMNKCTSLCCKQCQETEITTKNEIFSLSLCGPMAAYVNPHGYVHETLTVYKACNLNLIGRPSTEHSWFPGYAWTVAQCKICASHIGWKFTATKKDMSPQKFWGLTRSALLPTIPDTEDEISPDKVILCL

[8] = target: T1, Protein cereblon/Estrogen receptor; assay: Protac activity at CRBN/ER in human MCF7 cells assessed as induction of ER degradation measured after 24 hrs by Western blot analysis; assay type: cell-based
[9] = Toxicity in CD-1 mouse assessed as adverse effect at 2 mg/kg, ip; assay type: organism-based; settings: in vivo
[10] = target: T1, Protein cereblon/Estrogen receptor; assay: Protac activity at CRBN/ER in human MCF7 cells assessed as induction of ER degradation at 10 uM measured after 24 hrs by Western blot analysis; assay type: cell-based
Target sequence in this assay (P03372 whole entry, looked up): as the sequence (P03372 whole entry, looked up) above
Target sequence in this assay (Q96SW2 whole entry, looked up): as the sequence (Q96SW2 whole entry, looked up) above

In the case of COC(=O)c1ccc2c(c1)CCCC(c1ccc(Cl)cc1Cl)=C2c1ccc(OC2CCN(CCCNC(=O)C3CCN(C4CCN(C(=O)CNc5cccc6c5CN(C5CCC(=O)NC5=O)C6=O)CC4)CC3)C2)cc1 (centres undefined), the IC50 [1] is reported as 0.772 µM and the Activity [1] is reported as “Dose-dependent-effect”.
For Cc1ncsc1-c1ccc([C@H](C)NC(=O)[C@@H]2C[C@@H](O)CN2C(=O)[C@@H](NCC2CCN(c3ccc(C4=C(c5ccc(Cl)cc5Cl)CCCc5cc(C(=O)O)ccc54)cc3)CC2)C(C)(C)C)cc1, the Activity [2] was “Not active; Degradation Ability Was Poorer When Compared With Compounds Whose E3 Ligase Ligand Was Crbn”.
In the case of C[C@]12CC[C@@H]3c4ccc(O)cc4C[C@@H](CCCCCCCCC[S+]([O-])CCCC(F)(F)C(F)(F)F)[C@H]3[C@@H]1CC[C@@H]2O (some centres undefined) [FULVESTRANT], the half-life [3] is reported as 1.47 h, the CL/F [4] is reported as 45.8 mL/min/kg and the Tmax [5] is reported as 0.83 h. The Cmax [6] was 237 ng/mL and the IC50 [1] was < 0.0005 µM.
With COC(=O)c1ccc2c(c1)CCCC(c1ccc(Cl)cc1Cl)=C2c1ccc(N2CCN(CC3CCN(CC4CCN(C(=O)CNc5ccc6c(c5)C(=O)N(C5CCC(=O)NC5=O)C6)CC4)CC3)CC2)cc1 (centres undefined) the half-life [3] was 11.2 h, the Activity [7] was “Active” and the CL/F [4] was 25.8 mL/min/kg. For the same compound, the Activity [8] was “Dose-dependent-effect”, the DC50 [8] was 0.095 µM and the Tmax [5] was 0.83 h. The Activity [9] was “Non-toxic”, the Cmax [6] was 677 ng/mL and the IC50 [1] was 0.0302 µM. The Activity [1] was “Dose-dependent-effect” and the Activity [10] was “inactive”.
In the case of COC(=O)c1ccc2c(c1)CCCC(c1ccc(Cl)cc1Cl)=C2c1ccc(N2CCC(CNCCOCCCOCCCOCCNC(=O)COc3ccc4c(c3)C(=O)N(C3CCC(=O)NC3=O)C4=O)CC2)cc1 (centres undefined), the Activity [7] is reported as “Active”.
With COC(=O)c1ccc2c(c1)CCCC(c1ccc(Cl)cc1Cl)=C2c1ccc(N2CCC(CN[C@H](C(=O)N3C[C@H](O)C[C@H]3C(=O)N[C@@H](C)c3ccc(-c4scnc4C)cc3)C(C)(C)C)CC2)cc1 the Activity [2] was “Not active; Degradation Ability Was Poorer When Compared With Compounds Whose E3 Ligase Ligand Was Crbn”.
In the case of COC(=O)c1ccc2c(c1)CCCC(c1ccc(Cl)cc1Cl)=C2c1ccc(OC2CCN(CCCN[C@H](C(=O)N3C[C@H](O)C[C@H]3C(=O)N[C@@H](C)c3ccc(-c4scnc4C)cc3)C(C)(C)C)C2)cc1 (some centres undefined), the Activity [2] is reported as “Not active; Degradation Ability Was Poorer When Compared With Compounds Whose E3 Ligase Ligand Was Crbn”.
With COC(=O)c1ccc2c(c1)CCCC(c1ccc(Cl)cc1Cl)=C2c1ccc(OC2CCN(CCCNC(=O)CN3CCN(C(=O)CNc4cccc5c4CN(C4CCC(=O)NC4=O)C5=O)CC3)C2)cc1 (centres undefined) the IC50 [1] was 0.0802 µM and the Activity [1] was “Dose-dependent-effect”.

Reference: ChEMBL document CHEMBL6109113, “Design, synthesis, and biological evaluation of novel PROTACs compounds with good ERα degradation ability” (Bioorg Med Chem, 2025)
